Measurements reported in patent US20240226285A9, “IMMUNOSTIMULATORY COMPOSITIONS” (Bayer Animal Health GmbH, priority 2020, published 2024).

Legend:
[1] = tested on: NF-κB pathway; experiment: NF-κB dependent pathway readout (SEAP, pNPP assay) in J774-Dual reporter cell line; format: cell-based, murine; settings: for activation of the NF-κB pathway (increase of SEAP levels in supernatant, normalized to protein content): FIG. 1, class C ODN, oligonucleotide-liposome complexes, 1.85 μg/mL oligonucleotide; for activation of the NF-κB pathway (increase of SEAP levels in supernatant, normalized to protein content) / activation of the NF-κB pathway (SEAP levels) compared to untreated J774-DUAL: J774-DUAL cells, 48 h
Method: (§1) J774-DUAL™ cells (InvivoGen, murine NF-kB & IRF Reporter macrophage-like cells) were grown in Dulbecco's minimum essential medium (DMEM) with high D-glucose content, 1 mM sodium pyruvate and 4 mM stable glutamine. DMEM was supplemented with 10% FBS, 50 μg/mL streptomycin, 50 U/mL penicillin G and 100 μg/mL Normocin™. Every other week, the culture medium was additionally supplemented with 200 μg/mL Zeocin™ and 20 μg/mL Blasticidin.
(§2) For experimental series, serum free DMEM without phenol red was prepared containing 1 mM sodium pyruvate, 4 mM L-glutamine, 50 μg/mL streptomycin, 50 U/mL penicillin G, 100 μg/mL Normocin™, 200 μg/mL Zeocin™ and 20 μg/mL Blasticidin. J774-DUAL™ cell line was split once per week with a splitting ratio of 1:4.
(§3) J774-DUAL™ cells were cultivated in a Heracell™ 150 incubator (Thermo Scientific) at 37° C. with 5% C02 and 95% humidified air. For seeding, cells were counted using a Neubauer bright line hemocytometer (Marienfeld) with a volume 0.1 mm^3. Cell lines were regularly checked for absence of mycoplasmic contamination.
J774-Dual™ is a reporter cell line provided by Invivogen, which enables the simultaneous investigation of signal transduction resulting in the activation of the NF-κB and/or the IRF pathway.
J774-Dual™ cells express secreted embryonic alkaline phosphatase (SEAP) under the control of the NF-κB pathway. SEAP is secreted into the cell culture supernatant. Thus, a semi-quantitative analysis of NF-κB activation is possible (Invivogen product information (“J774-Dual Cells|NF-κB & IRF/IFN Reporter Macrophage” n.d., 774)). p-Nitrophenyl phosphate (pNPP) is a widely utilized chromogenic chemical for rapid determination of alkaline phosphatase activity. In the presence of alkaline phosphatase the substance is hydrolyzed into phosphate and the yellow para-Nitrophenol which can be measured spectrophotometrically (Bessey, Otto A., O. H. Lowky, and Mary Jane Brock. “A method for the rapid determination of alkaline phosphatase with five cubic millimeters of serum.” Journal of Biological Chemistry 164 (1946): 321-329.).
Cells were seeded with a density of 1×10^5 cells per well into 96-well microplates and given 24 h for adherence. The culture medium was removed and the cells were incubated with either naked CpG nucleic acids, liposomes or liposome-nucleic acid complexes in serum-free medium at 37° C. with 5% CO2 and 95% humidified air (Heracell™ 150, Thermo Scientific). Liposome with a LC20>40 μM were included in the experimental series. After 48 h of incubation 100 μL supernatant of each sample were transferred into 96-well microplates (SpectraPlate™-96 TC, Perkin Elmer) and analyzed spectrophotometrically using a p-Nitrophenyl phosphate assay.
To this end, 100 μL pNPP working reagent consisting of 20 mM pNPP in 50 mM NaHCO3 buffer (pH 9.6) were added to each well containing samples, controls or calibration standards. After the incubation of the mixture at 37° C. for 1 h, absorbance was determined using Victor3™ V multimode plate reader (Perkin Elmer) equipped with a 405 nm absorbance filter. Lipopolysaccharide from Salmonella anterica serotype Minnesota was applied as calibration standard to determine the linear range of the assay and as positive control. All experiments were conducted in triplicate.
Raw data was normalized to 10 μg/mL protein content and the average value of the untreated control was subtracted.

[2] = tested on: IRF pathway; experiment: Interferon regulatory factor (IRF) pathway readout (Lucia luciferase, QUANTI-Luc) in J774-Dual reporter cell line; format: cell-based, murine; settings: ODN complexed with liposomes comprising DOTAP+DOPE, DOTMA+DOPE or DDA+DOPE; 40 μM liposomal lipids, 1.85 μg/mL ODN; J774-DUAL cells, 48 h
Method: as §1, §2
as §3, with “contamination. […]” for “contamination.”
J774-Dual™ cells also express the Lucia luciferase gene under the control of the IRF pathway. […] By using QUANTI-Luc™ reagent, a semi-quantitative analysis of IRF activation is thus possible (Invivogen product information (“J774-Dual Cells|NF-κB & IRF/IFN Reporter Macrophage” n.d., 774).
Cells were seeded with a density of 1×10^5 cells per well into 96-well microplates and given 24 h for adherence. […] After 48 h of incubations, 50 μL supernatant of each sample were transferred into 96-well microplates (OptiPlate™-96 HS, Perkin Elmer) and analyzed using QUANTI-Luc™ luminescence assay according to the manufacturer's instructions.
QUANTI-Luc™ reagent was dissolved in 25 mL endotoxin-free water, and 50 μL were added to each well containing samples, controls or calibration standards. Luminescence was immediately determined using EnSpire® multimode plate reader (Perkin Elmer) and measured as relative light units (RLU). […]

Row | Substance | activation of the NF-κB pathway (increase of SEAP levels in supernatant, normalized to protein content) ([1]; 40 μM liposomal lipids) | activation of the IRF pathway (increase of luciferase levels in supernatant, normalized to protein content) [2] | activation of the NF-κB pathway (SEAP levels) compared to untreated J774-DUAL ([1]; FIG. 3, ODN complexed with liposomes, 40 μM liposomal lipids, 1.85 μg/mL ODN) | immunostimulatory potency (NF-κB pathway) of complexes compared to the uncomplexed ODN ([1]; FIG. 3, all liposome complexes except those with liposomes comprising DOTMA+DOPE, 40 μM lipids, 1.85 μg/mL ODN) | activation of the NF-κB pathway (SEAP levels) compared to untreated J774-DUAL ([1]; FIG. 3, uncomplexed (naked) ODN 1.85 μg/mL)
1 | ODN M362: class C immunostimulatory CpG oligonucleotide, SEQ ID NO. 2 (TCGTCGTCGTTCGAACGACGTTGAT; listed as DNA, chemistry not given here) | potent NF-κB pathway activation was not observed | potent IRF pathway activation was observed |  |  | 
2 | ODN 2395: class C immunostimulatory CpG oligonucleotide, SEQ ID NO. 1 (TCGTCGTTTTCGGCGCGCGCCG; listed as DNA, chemistry not given here) | potent NF-κB pathway activation was not observed | potent IRF pathway activation was observed |  |  | 
3 | ODN 1668: class B immunostimulatory CpG oligonucleotide, SEQ ID NO. 3 (DNA TCCATGACGTTCCTGATGCT; listed as DNA, chemistry not given here) |  | potent IRF pathway activation was observed | increased NF-κB pathway activation | not significantly improved | increased NF-κB pathway activation
